{"source": "paper PMC5218480", "about": "(PLoS ONE, 2017)", "test_system": "MV-4-11 cells", "experiment": "Gene expression microarray analysis (Affymetrix PrimeView) and GSEA", "type": "cell-based, human", "design": "RFU PODN (11730768_x_at) / Fold change /veh PODN (11730768_x_at) / RFU LINC00158 (11744669_a_at) / Fold change /veh LINC00158 (11744669_a_at) / RFU DUSP10 (11751237_a_at) / Fold change /veh DUSP10 (11751237_a_at) / RFU ID3 (11757404_x_at) / Fold change /veh ID3 (11757404_x_at) / RFU PLEKHG5 (11737974_s_at) / Fold change /veh PLEKHG5 (11737974_s_at) / RFU LRRC4B (11730491_at) / Fold change /veh LRRC4B (11730491_at) / RFU GIMAP4 (11747438_a_at) / Fold change /veh GIMAP4 (11747438_a_at) / RFU KRT8 (11758183_x_at) / Fold change /veh KRT8 (11758183_x_at) / RFU CNN1 (11734310_a_at) / Fold change /veh CNN1 (11734310_a_at) / RFU VPS37D (11726825_at) / Fold change /veh VPS37D (11726825_at) / RFU C10orf10 (11716522_x_at) / Fold change /veh C10orf10 (11716522_x_at) / RFU KIR2DL2 /// KIR2DL4 /// KIR2DL5A /// KIR2DL5B /// KIR2DS1 /// KIR2DS2 /// KIR2DS3 /// KIR2DS4 /// KIR3DL3 /// KIR3DL3 /// KIR3DS1 (11738374_at) / Fold change /veh KIR2DL2 /// KIR2DL4 /// KIR2DL5A /// KIR2DL5B /// KIR2DS1 /// KIR2DS2 /// KIR2DS3 /// KIR2DS4 /// KIR3DL3 /// KIR3DL3 /// KIR3DS1 (11738374_at) / RFU C1QL1 (11718748_at) / Fold change /veh C1QL1 (11718748_at) / RFU TMPRSS4 (11747572_a_at) / Fold change /veh TMPRSS4 (11747572_a_at) / RFU HAMP (11756126_x_at) / Fold change /veh HAMP (11756126_x_at) / RFU RNFT2 (11725882_a_at) / Fold change /veh RNFT2 (11725882_a_at) / RFU NR4A2 (11747474_a_at) / Fold change /veh NR4A2 (11747474_a_at) / RFU ABCC12 (11746883_a_at) / Fold change /veh ABCC12 (11746883_a_at) / RFU TMEM136 (11760407_x_at) / Fold change /veh TMEM136 (11760407_x_at) / RFU CLDN22 /// WWC2 (11732394_at) / Fold change /veh CLDN22 /// WWC2 (11732394_at) / RFU HLA-DPB1 (11760878_x_at) / Fold change /veh HLA-DPB1 (11760878_x_at) / RFU SPINT1 (11716480_a_at) / Fold change /veh SPINT1 (11716480_a_at) / RFU GAP43 (11754022_s_at) / Fold change /veh GAP43 (11754022_s_at) / RFU A4GNT (11735810_at) / Fold change /veh A4GNT (11735810_at) / RFU PRB3 (11715151_x_at) / Fold change /veh PRB3 (11715151_x_at) / RFU TUBB4B (11761932_at) / Fold change /veh TUBB4B (11761932_at) / RFU CAPN14 (11732068_a_at) / Fold change /veh CAPN14 (11732068_a_at) / RFU TMCC2 (11721928_a_at) / Fold change /veh TMCC2 (11721928_a_at) / RFU IRGQ (11745062_a_at) / Fold change /veh IRGQ (11745062_a_at) / RFU FAM174B (11720279_a_at) / Fold change /veh FAM174B (11720279_a_at) / RFU TMPRSS4 (11748680_a_at) / Fold change /veh TMPRSS4 (11748680_a_at) / RFU FAM212B (11763350_a_at) / Fold change /veh FAM212B (11763350_a_at) / RFU PLEKHG5 (11743358_a_at) / Fold change /veh PLEKHG5 (11743358_a_at) / RFU ZSCAN30 (11745921_a_at) / Fold change /veh ZSCAN30 (11745921_a_at) / RFU CMKLR1 (11741424_a_at) / Fold change /veh CMKLR1 (11741424_a_at) / RFU LOC101060620 /// MAPK8IP1 (11723275_at) / Fold change /veh LOC101060620 /// MAPK8IP1 (11723275_at) / RFU SPTSSB (11747773_x_at) / Fold change /veh SPTSSB (11747773_x_at) / RFU PRSS12 (11739890_at) / Fold change /veh PRSS12 (11739890_at) / RFU BIN1 (11741810_x_at) / Fold change /veh BIN1 (11741810_x_at) / RFU WNT11 (11732464_a_at) / Fold change /veh WNT11 (11732464_a_at) / RFU C10orf10 (11716521_a_at) / Fold change /veh C10orf10 (11716521_a_at) / RFU C5orf56 (11738089_at) / Fold change /veh C5orf56 (11738089_at) / RFU CYB561 (11721691_x_at) / Fold change /veh CYB561 (11721691_x_at) / RFU ANKRD19P (11752326_a_at) / Fold change /veh ANKRD19P (11752326_a_at) / RFU OR2T12 /// OR2T33 /// OR2T8 (11738714_s_at) / Fold change /veh OR2T12 /// OR2T33 /// OR2T8 (11738714_s_at) / RFU VCAN (11748164_a_at) / Fold change /veh VCAN (11748164_a_at) / RFU JSRP1 (11732532_at) / Fold change /veh JSRP1 (11732532_at) / RFU KRTAP10-11 (11738290_x_at) / Fold change /veh KRTAP10-11 (11738290_x_at) / RFU MYO3A (11730013_a_at) / Fold change /veh MYO3A (11730013_a_at) / RFU EBF3 (11725865_a_at) / Fold change /veh EBF3 (11725865_a_at) / RFU CAMK2N1 (11719241_x_at) / Fold change /veh CAMK2N1 (11719241_x_at) / RFU C5orf56 (11738088_a_at) / Fold change /veh C5orf56 (11738088_a_at) / RFU OLFML3 (11715873_a_at) / Fold change /veh OLFML3 (11715873_a_at) / RFU LOC100653217 /// NTM (11731650_a_at) / Fold change /veh LOC100653217 /// NTM (11731650_a_at) / RFU MAPK11 (11762145_a_at) / Fold change /veh MAPK11 (11762145_a_at) / RFU FIZ1 (11724087_x_at) / Fold change /veh FIZ1 (11724087_x_at) / RFU OASL (11726364_x_at) / Fold change /veh OASL (11726364_x_at) / RFU SOX15 (11748057_x_at) / Fold change /veh SOX15 (11748057_x_at) / RFU CD79A (11719716_a_at) / Fold change /veh CD79A (11719716_a_at) / RFU HIST1H1D (11736915_at) / Fold change /veh HIST1H1D (11736915_at) / RFU CASKIN2 (11723855_a_at) / Fold change /veh CASKIN2 (11723855_a_at) / RFU LOC730098 (11760151_x_at) / Fold change /veh LOC730098 (11760151_x_at) / RFU OR4N2 (11742367_at) / Fold change /veh OR4N2 (11742367_at) / RFU PRRT2 (11749266_a_at) / Fold change /veh PRRT2 (11749266_a_at) / RFU SNX32 (11753110_a_at) / Fold change /veh SNX32 (11753110_a_at) / RFU CDHR5 (11726645_a_at) / Fold change /veh CDHR5 (11726645_a_at) / RFU RCAN1 (11760418_a_at) / Fold change /veh RCAN1 (11760418_a_at) / RFU FAM167A (11723789_a_at) / Fold change /veh FAM167A (11723789_a_at) / RFU FAM26E (11764081_at) / Fold change /veh FAM26E (11764081_at) / RFU ISYNA1 (11749810_s_at) / Fold change /veh ISYNA1 (11749810_s_at) / RFU ACY1 (11761880_at) / Fold change /veh ACY1 (11761880_at) / RFU 11764098_at / Fold change /veh 11764098_at / RFU SAMD14 (11745864_x_at) / Fold change /veh SAMD14 (11745864_x_at) / RFU NPB (11741838_a_at) / Fold change /veh NPB (11741838_a_at) / RFU TMPRSS6 (11731388_a_at) / Fold change /veh TMPRSS6 (11731388_a_at) / RFU KRTAP10-2 (11738614_at) / Fold change /veh KRTAP10-2 (11738614_at) / RFU ARHGAP8 /// PRR5-ARHGAP8 (11727945_x_at) / Fold change /veh ARHGAP8 /// PRR5-ARHGAP8 (11727945_x_at) / RFU KRTAP5-7 /// NADSYN1 (11734609_at) / Fold change /veh KRTAP5-7 /// NADSYN1 (11734609_at) / RFU RASL12 (11751679_a_at) / Fold change /veh RASL12 (11751679_a_at) / RFU CDKN2B (11736163_a_at) / Fold change /veh CDKN2B (11736163_a_at) / RFU PRF1 (11729649_at) / Fold change /veh PRF1 (11729649_at) / RFU, ZNF638 /// ZNF638-IT1 / Fold change vs veh, ZNF638 /// ZNF638-IT1 / RFU, PANK3 / Fold change vs veh, PANK3 / RFU, SH3YL1 / Fold change vs veh, SH3YL1 / RFU, ZEB2 / Fold change vs veh, ZEB2 / RFU, NRIP1 / Fold change vs veh, NRIP1 / RFU, PTTG1IP / Fold change vs veh, PTTG1IP / RFU, CAPN2 / Fold change vs veh, CAPN2 / RFU, MED14 / Fold change vs veh, MED14 / RFU, SNORA58 / Fold change vs veh, SNORA58 / RFU, C1orf63 / Fold change vs veh, C1orf63 / RFU, LRRFIP1 / Fold change vs veh, LRRFIP1 / RFU, NDUFAF7 / Fold change vs veh, NDUFAF7 / RFU, SLC12A2 / Fold change vs veh, SLC12A2 / RFU, IBTK / Fold change vs veh, IBTK / RFU, ESF1 / Fold change vs veh, ESF1 / Fold change vs veh, TMEM50B / RFU, TAOK1 / Fold change vs veh, TAOK1 / RFU, ACBD3 / Fold change vs veh, ACBD3 / RFU, TMA16 / Fold change vs veh, TMA16 / RFU, RWDD3 / Fold change vs veh, RWDD3 / RFU, BCAT1 / Fold change vs veh, BCAT1 / RFU, EDEM3 / Fold change vs veh, EDEM3 / RFU, TMEM33 / Fold change vs veh, TMEM33 / RFU, WDR75 / Fold change vs veh, WDR75 / RFU, AHCTF1 / Fold change vs veh, AHCTF1 / RFU, TFRC / Fold change vs veh, TFRC / RFU, ZDHHC17 / Fold change vs veh, ZDHHC17 / RFU, NOM1 / Fold change vs veh, NOM1 / RFU, ARL8B / Fold change vs veh, ARL8B / RFU, ZBTB11 / Fold change vs veh, ZBTB11 / RFU, TAMM41 / Fold change vs veh, TAMM41 / RFU, KIAA1704 /// LOC100996395 / Fold change vs veh, KIAA1704 /// LOC100996395 / RFU, ING1 / Fold change vs veh, ING1 / RFU, TRMT61B / Fold change vs veh, TRMT61B / RFU, FUBP3 / Fold change vs veh, FUBP3 / RFU, TP53 / Fold change vs veh, TP53 / RFU, TNKS2 / Fold change vs veh, TNKS2 / RFU, ZFP14 / Fold change vs veh, ZFP14 / RFU, ACTR2 / Fold change vs veh, ACTR2 / RFU, PPP3R1 / Fold change vs veh, PPP3R1 / RFU, PIK3R1 / Fold change vs veh, PIK3R1 / RFU, HNRNPA1 / Fold change vs veh, HNRNPA1 / RFU, RNF170 / Fold change vs veh, RNF170 / RFU, ZNF28 / Fold change vs veh, ZNF28 / RFU, RNGTT / Fold change vs veh, RNGTT / RFU, OGT / Fold change vs veh, OGT / RFU, BRD1 / Fold change vs veh, BRD1 / RFU, MARS / Fold change vs veh, MARS / RFU, ZNF655 / Fold change vs veh, ZNF655 / RFU, FAHD1 / Fold change vs veh, FAHD1 / RFU, BDP1 / Fold change vs veh, BDP1 / RFU, LRRCC1 / Fold change vs veh, LRRCC1 / RFU, ARID1A / Fold change vs veh, ARID1A / RFU, ZNF146 / Fold change vs veh, ZNF146 / RFU, ZNF330 / Fold change vs veh, ZNF330 / RFU, GPN3 / Fold change vs veh, GPN3 / RFU, C9orf123 / Fold change vs veh, C9orf123 / RFU, N4BP2L2 / Fold change vs veh, N4BP2L2 / RFU, ARFIP1 / Fold change vs veh, ARFIP1 / RFU, FAM179B / Fold change vs veh, FAM179B / RFU, BCL10 / Fold change vs veh, BCL10 / RFU, UHRF1BP1L / Fold change vs veh, UHRF1BP1L / RFU, BET1 / Fold change vs veh, BET1 / RFU, CNOT2 / Fold change vs veh, CNOT2 / RFU, ZNF268 / Fold change vs veh, ZNF268 / Fold change vs veh, ZNF507 / RFU, DGCR2 / Fold change vs veh, DGCR2 / RFU, WDSUB1 / Fold change vs veh, WDSUB1 / Fold change vs veh, HSP90B1 /// MIR3652 / RFU, ADSS / Fold change vs veh, ADSS / RFU, GK / Fold change vs veh, GK / RFU, ZNF148 / Fold change vs veh, ZNF148 / RFU, TAF9 / Fold change vs veh, TAF9 / RFU, SLC1A5 / Fold change vs veh, SLC1A5 / RFU, SLMO2 / Fold change vs veh, SLMO2 / RFU, ABCC4 / Fold change vs veh, ABCC4 / RFU, LOC101060439 /// RAP1B / Fold change vs veh, LOC101060439 /// RAP1B / RFU, RFX7 / Fold change vs veh, RFX7 / RFU, GTPBP10 / Fold change vs veh, GTPBP10 / RFU, CNEP1R1 / Fold change vs veh, CNEP1R1 / RFU, BIVM-ERCC5 /// ERCC5 / Fold change vs veh, BIVM-ERCC5 /// ERCC5 / RFU, ILF3 / Fold change vs veh, ILF3 / RFU 11762660_at / Fold change /veh 11762660_at / RFU VCAN (11757783_s_at) / Fold change /veh VCAN (11757783_s_at) / RFU DDX43 (11728927_at) / Fold change /veh DDX43 (11728927_at) / RFU KRT8 (11758188_x_at) / Fold change /veh KRT8 (11758188_x_at) / RFU NKD1 (11759106_at) / Fold change /veh NKD1 (11759106_at) / RFU SRD5A1 (11742802_a_at) / Fold change /veh SRD5A1 (11742802_a_at) / RFU TPSAB1 /// TPSB2 (11721975_s_at) / Fold change /veh TPSAB1 /// TPSB2 (11721975_s_at) / RFU GSTM3 (11746129_a_at) / Fold change /veh GSTM3 (11746129_a_at) / RFU IL23R (11737362_x_at) / Fold change /veh IL23R (11737362_x_at) / RFU TMEM51 (11727254_a_at) / Fold change /veh TMEM51 (11727254_a_at) / RFU PIWIL2 (11732686_x_at) / Fold change /veh PIWIL2 (11732686_x_at) / RFU ORM1 (11744905_x_at) / Fold change /veh ORM1 (11744905_x_at) / RFU CCDC152 (11743942_at) / Fold change /veh CCDC152 (11743942_at) / RFU ECM1 (11717891_a_at) / Fold change /veh ECM1 (11717891_a_at) / RFU IL23R (11748794_a_at) / Fold change /veh IL23R (11748794_a_at) / RFU TNFAIP8L3 (11732012_x_at) / Fold change /veh TNFAIP8L3 (11732012_x_at) / RFU MBOAT4 (11741988_at) / Fold change /veh MBOAT4 (11741988_at) / RFU 11764193_at / Fold change /veh 11764193_at / RFU TMEM53 (11763286_at) / Fold change /veh TMEM53 (11763286_at) / RFU MAGEB2 (11727129_at) / Fold change /veh MAGEB2 (11727129_at) / RFU TMEM200A (11744735_a_at) / Fold change /veh TMEM200A (11744735_a_at) / RFU CCDC152 (11751479_a_at) / Fold change /veh CCDC152 (11751479_a_at) / RFU FAM211A (11726209_a_at) / Fold change /veh FAM211A (11726209_a_at) / RFU RGS16 (11746705_a_at) / Fold change /veh RGS16 (11746705_a_at) / RFU VCAN (11755009_s_at) / Fold change /veh VCAN (11755009_s_at) / RFU RHOB (11743442_s_at) / Fold change /veh RHOB (11743442_s_at) / RFU RGS16 (11720943_a_at) / Fold change /veh RGS16 (11720943_a_at) / RFU RGS16 (11720944_at) / Fold change /veh RGS16 (11720944_at) / RFU, VPS4B / Fold change vs veh, VPS4B / RFU, CREB1 / Fold change vs veh, CREB1 / RFU, DNAJC13 / Fold change vs veh, DNAJC13 / RFU, GNAQ / Fold change vs veh, GNAQ / RFU, CDK5R1 / Fold change vs veh, CDK5R1 / RFU, ZRANB3 / Fold change vs veh, ZRANB3 / RFU, CUL4A / Fold change vs veh, CUL4A / RFU, CCNY / Fold change vs veh, CCNY / RFU, UFL1 / Fold change vs veh, UFL1 / RFU, COG3 / Fold change vs veh, COG3 / RFU, DIAPH2 / Fold change vs veh, DIAPH2 / RFU, SKA2 / Fold change vs veh, SKA2 / RFU, AFF3 / Fold change vs veh, AFF3 / RFU, LMF1 / Fold change vs veh, LMF1 / RFU, IPO11 / Fold change vs veh, IPO11 / RFU, DFFB / Fold change vs veh, DFFB / RFU, FOXP1 / Fold change vs veh, FOXP1 / RFU, CARD8 / Fold change vs veh, CARD8 / RFU, STRN3 / Fold change vs veh, STRN3 / RFU, ADK / Fold change vs veh, ADK / RFU, RASSF2 / Fold change vs veh, RASSF2 / RFU, WIPF1 / Fold change vs veh, WIPF1 / RFU, LARP1B / Fold change vs veh, LARP1B / RFU, RASA1 / Fold change vs veh, RASA1 / RFU, RB1 / Fold change vs veh, RB1 / RFU, PPFIA1 / Fold change vs veh, PPFIA1 / RFU, MAT2A / Fold change vs veh, MAT2A / RFU, CCT5 / Fold change vs veh, CCT5 / RFU, WDR92 / Fold change vs veh, WDR92 / RFU, CUX1 / Fold change vs veh, CUX1 / RFU, TTC7A / Fold change vs veh, TTC7A / RFU, TMEM135 / Fold change vs veh, TMEM135 / RFU, DEPTOR / Fold change vs veh, DEPTOR / RFU, CPM / Fold change vs veh, CPM / RFU, DNAJB6 / Fold change vs veh, DNAJB6 / RFU, CACNA2D3 / Fold change vs veh, CACNA2D3 / RFU, DTX4 / Fold change vs veh, DTX4 / RFU, TFCP2 / Fold change vs veh, TFCP2 / RFU, GMCL1 /// GMCL1P1 / Fold change vs veh, GMCL1 /// GMCL1P1 / RFU, AEBP2 / Fold change vs veh, AEBP2 / RFU, SNHG1 /// SNORD22 /// SNORD25 /// SNORD26 /// SNORD27 /// SNORD28 /// SNORD29 /// SNORD31 / Fold change vs veh, SNHG1 /// SNORD22 /// SNORD25 /// SNORD26 /// SNORD27 /// SNORD28 /// SNORD29 /// SNORD31 / Fold change (Aza/veh), C12orf56 (ProbeSet 11735607_a_at) / Fold change (ACY-1035/veh), C12orf56 (ProbeSet 11735607_a_at) / Fold change (Aza/veh), FGFR1OP (ProbeSet 11751329_s_at) / Fold change (ACY-1035/veh), FGFR1OP (ProbeSet 11751329_s_at) / Fold change (Aza/veh), VPS36 (ProbeSet 11739960_a_at) / Fold change (ACY-1035/veh), VPS36 (ProbeSet 11739960_a_at) / RFU SYPL1 (11715823_x_at) / Fold change /veh SYPL1 (11715823_x_at) / RFU IGFBP7 (11715501_s_at) / Fold change /veh IGFBP7 (11715501_s_at) / RFU REEP3 (11722064_at) / Fold change /veh REEP3 (11722064_at) / RFU IGLL1 (11728026_x_at) / Fold change /veh IGLL1 (11728026_x_at): dose or concentration left out as unconfirmed", "conditions": "ProbeSet 11747937_a_at; LIST D", "data": [{"compound": "Nc1ncn([C@@H]2O[C@H](CO)[C@@H](O)[C@H]2O)c(=O)n1", "note": "[azacitidine]", "values": [{"measurement": "Fold change vs veh, DNAJB6", "value": 0.52}]}]}
